According to patent publication US8293736B2, “Purine compounds selective for PI3K P110 delta, and methods of use” (F. Hoffmann la Roche AG, priority 2010, dated 2012):

Legend:
p110 alpha = molecular target: T1, p110 alpha (Homo sapiens, UniProt P42336); experiment: PI3K isoform inhibition assay (fluorescence polarization), p110 alpha; assay type: biochemical; settings: delta/alpha selectivity ratio
T1 construct: purchased Upstate Group, Millipore; Dundee, UK
Description: (§1) Determination of the activity of PI3 kinase activity of Formula I compounds is possible by a number of direct and indirect detection methods.
(§2) PI3K enzymatic activity was assayed by measuring the amount of product phosphatidylinositol 3,4,5-phosphate (PIP3) formed from substrate 4,5 phosphatidylinositol 4,5-phosphate (PIP2) using a fluorescence polarization displacement assay. The decrease in fluorescence polarization of a fluorescent PIP3 probe is measured as it is displaced from a PIP3-binding protein GRP-1 detector by PI3K-catalyzed product. […] The kinase reactions were initiated by the addition of 40 ng/mL p110α/p85α, 300 ng/mL p110β/p85α, 40 ng/mL p110γ, or 40 ng/mL p110δ/p85α (Upstate Group, Millipore; Dundee, UK), and 10 μM PIP2 (Echelon Biosciences) to the wells. […] After 60 minutes of incubation at room temperature to allow equilibration of labeled and unlabeled PIP3 binding, the parallel and perpendicular components of the fluorescence emissions from each sample were measured at an excitation wavelength of 530 nm and an emission wavelength of 590 nm using an Envision fluorescent plate reader with a rhodamine filter (PerkinElmer Life and Analytical Sciences; Wellesley, Mass.). The assay is capable of detecting 0.1-2.0 μM PIP3 product. The Ki apparent values were obtained by fitting the dose-dependent inhibition data to the Morrison equation for tight-binding, competitive inhibitors. Reference: R. A. Copeland, Enzymes. “A Practical Introduction to Structure, Mechanism and Data Analysis”.
The same protocol may be used to establish Ki values for p110α (alpha) PI3K binding.
The four Class I PI 3-kinases are cloned into baculovirus vectors as follows: […]

p110 delta = molecular target: T2, p110 delta (Homo sapiens, UniProt O00329); experiment: PI3K isoform inhibition assay (fluorescence polarization), p110 delta; assay type: biochemical; settings: Ki apparent, Morrison equation; 25 μM ATP, 10 μM PIP2
T2 construct: purchased Upstate Group, Millipore; Dundee, UK
Description: as §1, §2
The Formula I compound was serially diluted in 100% DMSO. The kinase reaction was incubated for 1 h at room temperature, and the reaction was terminated by the addition of PBS. IC50 values were subsequently determined using sigmoidal dose-response curve fit (variable slope). […]

T2 sequence (O00329 whole entry, canonical isoform): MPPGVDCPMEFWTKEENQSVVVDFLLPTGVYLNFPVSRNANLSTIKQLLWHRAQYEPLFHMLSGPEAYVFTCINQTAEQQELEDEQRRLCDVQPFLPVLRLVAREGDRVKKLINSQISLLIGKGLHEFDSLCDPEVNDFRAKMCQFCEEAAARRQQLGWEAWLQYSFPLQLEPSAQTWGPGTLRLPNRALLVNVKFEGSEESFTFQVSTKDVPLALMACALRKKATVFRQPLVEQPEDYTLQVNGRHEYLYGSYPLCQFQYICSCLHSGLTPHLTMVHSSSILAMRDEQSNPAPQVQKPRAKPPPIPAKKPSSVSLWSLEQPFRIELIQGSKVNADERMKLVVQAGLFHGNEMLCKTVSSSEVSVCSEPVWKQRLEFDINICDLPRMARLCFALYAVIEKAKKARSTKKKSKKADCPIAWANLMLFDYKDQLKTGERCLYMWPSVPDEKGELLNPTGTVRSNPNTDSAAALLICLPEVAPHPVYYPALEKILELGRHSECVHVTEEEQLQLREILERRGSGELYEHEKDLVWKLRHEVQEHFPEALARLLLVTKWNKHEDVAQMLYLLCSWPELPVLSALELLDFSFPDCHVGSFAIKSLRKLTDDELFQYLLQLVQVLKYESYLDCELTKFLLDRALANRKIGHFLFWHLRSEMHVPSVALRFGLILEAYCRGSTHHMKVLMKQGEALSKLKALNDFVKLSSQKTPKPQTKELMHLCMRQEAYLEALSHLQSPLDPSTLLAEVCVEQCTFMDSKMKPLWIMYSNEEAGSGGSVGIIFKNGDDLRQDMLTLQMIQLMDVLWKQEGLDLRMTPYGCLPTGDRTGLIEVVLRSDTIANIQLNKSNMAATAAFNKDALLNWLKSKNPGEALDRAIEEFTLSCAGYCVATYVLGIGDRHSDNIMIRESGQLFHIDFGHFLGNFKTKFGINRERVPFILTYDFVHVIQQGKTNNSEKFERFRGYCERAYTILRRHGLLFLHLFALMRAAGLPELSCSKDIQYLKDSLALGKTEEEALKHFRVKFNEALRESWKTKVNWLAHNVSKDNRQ
T2 sequence (P27986 whole entry partner, canonical isoform): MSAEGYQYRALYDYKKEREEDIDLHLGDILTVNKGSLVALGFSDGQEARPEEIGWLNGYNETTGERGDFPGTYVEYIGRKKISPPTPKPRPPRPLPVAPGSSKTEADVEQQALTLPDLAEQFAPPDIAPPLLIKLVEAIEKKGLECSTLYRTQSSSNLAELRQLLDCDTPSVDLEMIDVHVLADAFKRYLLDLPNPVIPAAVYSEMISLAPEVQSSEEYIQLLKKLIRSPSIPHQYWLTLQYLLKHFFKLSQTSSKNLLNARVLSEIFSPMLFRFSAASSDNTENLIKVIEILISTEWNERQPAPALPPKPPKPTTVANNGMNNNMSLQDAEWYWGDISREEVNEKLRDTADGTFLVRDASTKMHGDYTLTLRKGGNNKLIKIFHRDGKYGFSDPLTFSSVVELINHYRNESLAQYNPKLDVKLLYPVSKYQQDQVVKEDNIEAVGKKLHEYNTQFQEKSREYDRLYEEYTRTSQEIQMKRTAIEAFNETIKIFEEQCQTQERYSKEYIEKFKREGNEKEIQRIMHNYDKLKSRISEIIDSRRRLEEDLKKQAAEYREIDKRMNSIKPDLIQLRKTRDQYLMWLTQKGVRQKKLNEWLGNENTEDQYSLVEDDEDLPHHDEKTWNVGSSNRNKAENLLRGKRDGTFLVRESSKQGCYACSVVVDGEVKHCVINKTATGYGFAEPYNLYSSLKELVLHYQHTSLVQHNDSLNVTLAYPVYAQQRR
T1 sequence (P42336 whole entry, species assumed, canonical isoform): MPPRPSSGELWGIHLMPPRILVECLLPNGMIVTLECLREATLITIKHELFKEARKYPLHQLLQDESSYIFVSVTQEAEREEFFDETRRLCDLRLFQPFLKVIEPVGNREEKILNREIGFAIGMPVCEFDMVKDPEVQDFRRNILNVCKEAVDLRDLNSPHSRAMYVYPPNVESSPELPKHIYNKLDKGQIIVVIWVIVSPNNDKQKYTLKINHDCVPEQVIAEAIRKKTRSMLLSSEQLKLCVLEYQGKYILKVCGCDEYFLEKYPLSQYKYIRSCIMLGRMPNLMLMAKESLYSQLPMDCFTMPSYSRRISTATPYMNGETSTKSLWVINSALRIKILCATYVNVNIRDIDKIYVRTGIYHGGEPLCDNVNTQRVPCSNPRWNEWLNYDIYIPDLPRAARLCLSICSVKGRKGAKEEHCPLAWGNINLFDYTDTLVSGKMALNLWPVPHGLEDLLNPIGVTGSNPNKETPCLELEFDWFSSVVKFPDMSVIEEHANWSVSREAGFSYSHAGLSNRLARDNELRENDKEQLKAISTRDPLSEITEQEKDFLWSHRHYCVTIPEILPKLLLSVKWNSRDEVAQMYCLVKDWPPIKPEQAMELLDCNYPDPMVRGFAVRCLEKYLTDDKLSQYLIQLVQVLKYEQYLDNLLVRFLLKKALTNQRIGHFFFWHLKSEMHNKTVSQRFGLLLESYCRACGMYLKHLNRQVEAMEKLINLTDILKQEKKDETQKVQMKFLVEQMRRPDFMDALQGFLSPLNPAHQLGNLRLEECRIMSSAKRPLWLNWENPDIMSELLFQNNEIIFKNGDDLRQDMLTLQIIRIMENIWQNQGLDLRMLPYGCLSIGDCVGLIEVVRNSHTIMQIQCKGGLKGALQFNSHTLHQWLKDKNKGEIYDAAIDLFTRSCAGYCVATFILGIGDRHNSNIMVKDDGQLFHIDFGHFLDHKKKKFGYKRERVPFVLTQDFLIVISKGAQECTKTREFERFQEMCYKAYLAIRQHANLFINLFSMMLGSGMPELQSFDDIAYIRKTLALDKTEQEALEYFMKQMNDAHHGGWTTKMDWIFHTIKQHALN
T1 sequence (P27986 whole entry partner, species assumed, canonical isoform): as the sequence (P27986 whole entry partner, canonical isoform) above

SMILES	Ki p110 alpha/ Ki p110 delta (p110 alpha)	Ki (p110 delta)
CCc1nc2ccccc2n1-c1nc(N2CCOCC2)c2nc(OC3CN(C(=O)[C@H](C)O)C3)n(C)c2n1 [Compound 129, (S)-1-(3-(2-(2-ethyl-1H-benzo[d]imidazol-1-yl)-9-methyl-6-morpholino-9H-purin-8-yloxy)azetidin-1-yl)-2-hydroxypropan-1-one]	87	1.42 nM
CC(C)C(=O)N1CC(Oc2nc3c(N4CCOCC4)nc(-n4c(C(C)(F)F)nc5ccccc54)nc3n2C)C1 [Compound 132, 1-(3-(2-(2-(1,1-difluoroethyl)-1H-benzo[d]imidazol-1-yl)-9-methyl-6-morpholino-9H-purin-8-yloxy)azetidin-1-yl)-2-methylpropan-1-one]	31	0.929 nM
Cn1c(OC2CN(C3CCS(=O)(=O)CC3)C2)nc2c(N3CCOCC3)nc(-n3c(CCO)nc4ccccc43)nc21 [Compound 136, 2-(1-(9-methyl-6-morpholino-8-(1-(1,1-dioxo-tetrahydro-2H-thiopyran-4-yl)azetidin-3-yloxy)-9H-purin-2-yl)-1H-benzo[d]imidazol-2-yl)ethanol]	90	4.94 nM
CN(C)c1nc2ccccc2n1-c1nc(N2CCOCC2)c2nc(OC3CN(C4CCS(=O)(=O)CC4)C3)n(C)c2n1 [Compound 137, N,N-dimethyl-1-(9-methyl-6-morpholino-8-(1-(1,1-dioxo-tetrahydro-2H-thiopyran-4-yl)azetidin-3-yloxy)-9H-purin-2-yl)-1H-benzo[d] imidazol-2-amine]	121	4.73 nM
CC(C)C(=O)N1CC(Oc2nc3c(N4CCOCC4)nc(-n4c(CCO)nc5ccccc54)nc3n2C)C1 [Compound 138, 1-(3-(2-(2-(2-hydroxyethyl)-1H-benzo[d]imidazol-1-yl)-9-methyl-6-morpholino-9H-purin-8-yloxy)azetidin-1-yl)-2-methylpropan-1-one]	68	3.91 nM
Cn1c(OC2CN(C3CCS(=O)(=O)CC3)C2)nc2c(N3CCOCC3)nc(-n3c(C(C)(F)F)nc4ccccc43)nc21 [Compound 139, 4-(2-(2-(1,1-difluoroethyl)-1H-benzo[d]imidazol-1-yl)-9-methyl-8-(1-(1,1-dioxo-tetrahydro-2H-thiopyran-4-yl)azetidin-3-yloxy)-9H-purin-6-yl)morpholine]	59	1.42 nM
CO[C@H](C)c1nc2ccccc2n1-c1nc(N2CCOCC2)c2nc(OC3CN(C(=O)C(C)C)C3)n(C)c2n1 [Compound 140, (R)-1-(3-(2-(2-(1-methoxyethyl)-1H-benzo[d]imidazol-1-yl)-9-methyl-6-morpholino-9H-purin-8-yloxy)azetidin-1-yl)-2-methylpropan-1-one]	64	1.53 nM
CO[C@@H](C)c1nc2ccccc2n1-c1nc(N2CCOCC2)c2nc(OC3CN(C(=O)C(C)C)C3)n(C)c2n1 [Compound 141, (S)-1-(3-(2-(2-(1-methoxyethyl)-1H-benzo[d]imidazol-1-yl)-9-methyl-6-morpholino-9H-purin-8-yloxy)azetidin-1-yl)-2-methylpropan-1-one]	54	0.834 nM
CO[C@H](C)c1nc2ccccc2n1-c1nc(N2CCOCC2)c2nc(OC3CN(C4CCS(=O)(=O)CC4)C3)n(C)c2n1 [Compound 142, (R)-4-(2-(2-(1-methoxyethyl)-1H-benzo[d]imidazol-1-yl)-9-methyl-8-(1-(1,1-dioxo-tetrahydro-2H-thiopyran-4-yl)azetidin-3-yloxy)-9H-purin-6-yl)morpholine]	96	1.61 nM
CO[C@@H](C)c1nc2ccccc2n1-c1nc(N2CCOCC2)c2nc(OC3CN(C4CCS(=O)(=O)CC4)C3)n(C)c2n1 [Compound 143, (S)-4-(2-(2-(1-methoxyethyl)-1H-benzo[d]imidazol-1-yl)-9-methyl-8-(1-(1,1-dioxo-tetrahydro-2H-thiopyran-4-yl)azetidin-3-yloxy)-9H-purin-6-yl)morpholine]	50	1.59 nM
CCc1nc2ccccc2n1-c1nc(N2CCOCC2)c2nc(OC3CN(C(=O)C4(F)CC4)C3)n(C)c2n1 [Compound 146, (3-(2-(2-ethyl-1H-benzo[d]imidazol-1-yl)-9-methyl-6-morpholino-9H-purin-8-yloxy)azetidin-1-yl)(1-fluorocyclopropyl)methanone]	41	4.46 nM
CCc1nc2ccccc2n1-c1nc(N2CCOCC2)c2nc(OC3CN(C(=O)C(C)(C)F)C3)n(C)c2n1 [Compound 147, 1-(3-(2-(2-ethyl-1H-benzo[d]imidazol-1-yl)-9-methyl-6-morpholino-9H-purin-8-yloxy)azetidin-1-yl)-2-fluoro-2-methylpropan-1-one]	72	2.33 nM
CCc1nc2ccccc2n1-c1nc(N2CCOCC2)c2nc(OC3CN(C(=O)C4(C#N)CC4)C3)n(C)c2n1 [Compound 150, 1-(3-(2-(2-ethyl-1H-benzo [d]imidazol-1-yl)-9-methyl-6-morpholino-9H-purin-8-yloxy)azetidine-1-carbonyl) cyclopropanecarbonitrile]	30	2.86 nM

Further lines, results first:

Ki p110 alpha/ Ki p110 delta (p110 alpha)	Ki (p110 delta)	SMILES
100	0.826 nM	CCc1nc2ccccc2n1-c1nc(N2CCOCC2)c2nc(OC3CN(C(=O)C4(C)CC4)C3)n(C)c2n1 [Compound 145, (3-(2-(2-ethyl-1H-benzo [d]imidazol-1-yl)-9-methyl-6-morpholino-9H-purin-8-yloxy)azetidin-1-yl)(1-methylcyclopropyl)methanone]
259	0.34 nM	CCc1nc2ccccc2n1-c1nc(N2CCOCC2)c2nc(OC3CN(C(=O)C4CC4)C3C)n(C)c2n1 (centres unmarked) [Compound 148, cyclopropyl(3-(2-(2-ethyl-1H-benzo[d]imidazol-1-yl)-9-methyl-6-morpholino-9H-purin-8-yloxy)-2-methylazetidin-1-yl)methanone]
277	0.444 nM	CCc1nc2ccccc2n1-c1nc(N2CCOCC2)c2nc(OC3CN(C(=O)C(C)C)C3C)n(C)c2n1 (centres unmarked) [Compound 149, 1-(3-(2-(2-ethyl-1H-benzo [d]imidazol-1-yl)-9-methyl-6-morpholino-9H-purin-8-yloxy)-2-methylazetidin-1-yl)-2-methylpropan-1-one]
107	0.701 nM	CCc1nc2ccccc2n1-c1nc(N2CCOCC2)c2nc(OC3CN(C(=O)[C@H]4CC45CCC5)C3)n(C)c2n1 [Compound 152, (S)-(3-(2-(2-ethyl-1H-benzo [d]imidazol-1-yl)-9-methyl-6-morpholino-9H-purin-8-yloxy)azetidin-1-yl) (spiro[2.3]hexan-1-yl) methanone]
159	0.734 nM	CCc1nc2ccccc2n1-c1nc(N2CCOCC2)c2nc(OC3CN(C(=O)[C@@H]4CC45CCC5)C3)n(C)c2n1 [Compound 153, (R)-(3-(2-(2-ethyl-1H-benzo [d]imidazol-l-yl)-9-methyl-6-morpholino-9H-purin-8-yloxy)azetidin-1-yl) (spiro[2.3]hexan-1-yl) methanone]
102	0.573 nM	CCc1nc2ccccc2n1-c1nc(N2CCOCC2)c2nc(OC3CN(C(=O)C4C[C@H]4F)C3)n(C)c2n1 (stereo partly drawn) [Compound 154, (3-(2-(2-ethyl-1H-benzo [d]imidazol-1-yl)-9-methyl-6-morpholino-9H-purin-8-yloxy)azetidin-1-yl)((2R)-2-fluorocyclopropyl)methanone]
91	0.321 nM	CCc1nc2ccccc2n1-c1nc(N2CCOCC2)c2nc(OC3CN(C(=O)C4(C(F)(F)F)CC4)C3)n(C)c2n1 [Compound 155, (3-(2-(2-ethyl-1H-benzo[d]imidazol-1-yl)-9-methyl-6-morpholino-9H-purin-8-yloxy)azetidin-1-yl)(1-(trifluoromethyl)cyclopropyl) methanone]
76	0.539 nM	CCc1nc2ccccc2n1-c1nc(N2CCOCC2)c2nc(OC3CN(C(=O)C4(COC)CC4)C3)n(C)c2n1 [Compound 156, (3-(2-(2-ethyl-1H-benzo[d]imidazol-1-yl)-9-methyl-6-morpholino-9H-purin-8-yloxy)azetidin-1-yl)(1-(methoxymethyl)cyclopropyl) methanone]
104	0.46 nM	CCc1nc2ccccc2n1-c1nc(N2CCOCC2)c2nc(OC3CN(C(=O)C4C[C@@H]4F)C3)n(C)c2n1 (stereo partly drawn) [Compound 157, (3-(2-(2-ethyl-1H-benzo[d]imidazol-1-yl)-9-methyl-6-morpholino-9H-purin-8-yloxy)azetidin-1-yl)((2S)-2-fluorocyclopropyl)methanone]
